{"source": "patent US20080280987A1", "about": "“Methods of inhibiting angiogenesis and treating angiogenesis-associated diseases” (priority 2006, published 2008)", "key": {"[1]": {"test_system": "human endothelial cells co-cultured with human fibroblast cells", "assay": "Microvessel/tubule formation and disruption assay, TCS CellWorks AngioKit model", "format": "cell-based", "details": "treated on day 11, stained on day 12", "experimental": "To study the effect of Nab-5404 and Nab-5676 on angiogenesis, the compounds were evaluated in a microvessel formation assay using a TCS CellWorks AngioKit model (TCS CellWorks Ltd., Botolph Claydon, Buckingham UK). The AngioKit model uses human endothelial cells co-cultured with other human cells. The endothelial cells initially form small islands within the culture matrix, then begin to proliferate and then enter a migratory phase during which they move through the matrix to form threadlike tubule structures. These gradually join up to form a network of tubules which closely resemble a capillary bed (at day 9-11). The tubules stain positive for von Willebrand's factor, CD31 (PECAM-1) and ICAM-2.\nIn addition to Nab-5404 and Nab-5676, a known vascular targeting agent, combretastatin 4-phosphate (CA4P), was tested for in vitro anti-angiogenic activity. The TCS CellWorks AngioKit model was used according to the manufacturer's instructions. As outlined above, human endothelial cells were co-cultured with human fibroblast cells in a 24 well plate and exposed to Nab-5404, Nab-5676 or CA4P across a range of concentrations (0.01 to 100 μg/ml). […] The length of the tubules was analyzed using ImagePro software and the IC50 of each compound was calculated using Prism software. […]"}, "[2]": {"test_system": "established HT-29 colon cell tumors", "assay": "Anti-tumor activity in HT-29 xenograft mouse model", "format": "in vivo", "details": "100 mg/kg every day for 4 doses, tumors 900 mm^3", "experimental": "The anti-tumor activity of Nab-5404 and Nab-5676 was evaluated in a xenograft mouse model. The compounds were tested against established HT-29 colon cell tumors in vivo in two cycles, the first a low-dosage schedule followed by a second high-dosage schedule. Irinotecan was used as a positive control in the study. Mice (n=10) were separated into 8 groups with Nab-5404 and Nab-5676 mice receiving the compounds by intravenous injection. The first cycle consisted of administration of Nab-5404 or Nab-5676 every 3 days for 4 doses for days 0-14 followed by the second cycle which consisted of administration of Nab-5404 or Nab-5676 every 3 days for 4 doses for days 15-30. Irinotecan was administered by intravenous injection at a dose of 60 mg/kg every 3 days for 4 doses. The individual groups are shown in Table 2, wherein 1st cycle refers to days 0-14 and 2nd cycle refers to days 15-30.\nCombretastatin 4-phosphate (CA4P) was also administered to HT-29 tumor-bearing mice in a separate experiment. The mice (n=10) were treated once tumors reached 900 mm^3 with either vehicle or CA4P at the reported MTD of 100 mg/kg on a schedule of every day for 4 doses."}, "[3]": {"test_system": "established HT-29 colon cell tumors", "details": "mice, every day for 4 doses; cited from earlier work"}}}
{"smiles": "COc1ccc(/C=C\\c2cc(OC)c(OC)c(OC)c2)cc1OP(=O)(O)O", "note": "[CA4P, combretastatin 4-phosphate]", "values": [{"measurement": "IC50 disrupting established tubules (tubule length)", "setting": "[1]", "value": 3, "unit": "ng/mL"}, {"measurement": "Activity in HT-29 tumor model", "setting": "[2]", "value": "inactive"}, {"measurement": "Reported MTD", "setting": "[3]", "value": 100, "unit": "mg/kg"}]}
